From patent US4844897A, “Anti-tumor protease preparations” (Maeda; Hiroshi, priority 1985, dated 1989)

What was measured:
[1] = test system: α1 anti-trypsin, α2 antichymotrypsin, α2 macroglobulin, etc.; experiment: Inhibition of protease activity by protease-inhibiting substances in vivo
[2] = test system: tumors; experiment: Anti-tumor action of proteases (general statement); assay type: in vivo
[3] = test system: Meth A tumor; experiment: Effectiveness on mouse solid tumor (methylcholanthrene-induced Meth A tumor); assay type: in vivo, Balb/C mouse; conditions: injected into solid tumors, 0.1 ml, two administrations (once for each day); FIG. 3
Procedure: Anti-tumor actions of various proteases: Effectiveness on mouse solid tumor (i.e., effect on methylcholanthrene-induced tumor (Meth A tumor):
The diameters of the tumors after two administrations (once for each day) were measured.

[4] = test system: Human laryngeal carcinoma (HEp-2); experiment: Toxicity of various proteases against cultured cells, serum-free; assay type: cell-based; conditions: absence of serum, 24-hour treatment
Procedure: (§1) Cell toxicity of various proteases against cultured cells and influences of serum on the cell toxicity:
(§2) The present inventors have investigated cell-killing effects of various proteases by adding the proteases to various cultured cells, and also at the same time the effect of serum on the cytotoxicity.
(§3) After 24 hours, the cells in the Lab Tech chambers were allowed to culture under three different condition. In group A, they were replaced in RPMI medium with 10% fetal calf serum containing different concentrations of test protease. In group B, the same medium with appropriate protease was used but devoid of serum; In group C, a control medium was used with 10% serum but without protease. One hour and 24 hours after the culturing cytotoxicity, observed microscopically, was determined by counting the number of cells and by morphological investigation.

[5] = test system: African green monkey kidney (Epithelial cells); experiment: as above; assay type: cell-based; conditions: normal, absence of serum, 24-hour treatment
Procedure: as §1, §2, §3

[6] = test system: Rat neuroblastoma (C6); experiment: as above; assay type: cell-based; conditions: absence of serum, 24-hour treatment
Procedure: as §1, §2, §3

[7] = test system: Cervical canal cancer (HeLa); experiment: as above; assay type: cell-based; conditions: absence of serum, 24-hour treatment
Procedure: as §1, §2, §3

[8] = test system: Burkitt's lymphoma (Raji); experiment: as above; assay type: cell-based; conditions: absence of serum, 24-hour treatment
Procedure: as §1, §2, §3

[9] = test system: Mouse leukemia (RL.male. 1); experiment: as above; assay type: cell-based; conditions: absence of serum, 24-hour treatment
Procedure: as §1, §2, §3

[10] = test system: Monkey kidney fibroblast (Vero); experiment: as above; assay type: cell-based; conditions: normal cell, absence of serum, 24-hour treatment
Procedure: as §1, §2, §3

[11] = test system: Human normal T-lymphocytes; experiment: as above; assay type: cell-based; conditions: absence of serum, 24-hour treatment
Procedure: as §1, §2, §3

[12] = test system: Rat hepatocytes (Liver cells); experiment: as above; assay type: cell-based; conditions: normal, absence of serum, 24-hour treatment
Procedure: as §1, §2, §3

[13] = test system: Human fetus lung fibroblast (HEL); experiment: as above; assay type: cell-based; conditions: normal cell, absence of serum, 24-hour treatment
Procedure: as §1, §2, §3

[14] = test system: Human submaxillary gland tumor (HSG); experiment: as above; assay type: cell-based; conditions: absence of serum, 24-hour treatment
Procedure: as §1, §2, §3

[15] = test system: Human fibroblast (WISH); experiment: as above; assay type: cell-based; conditions: normal cell, absence of serum, 24-hour treatment
Procedure: as §1, §2, §3

[16] = test system: Vero; experiment: Cytotoxicity induced by protease activity in the presence of serum; assay type: cell-based, monkey
Procedure: as §1, §2, §3

[17] = test system: GMK; experiment: as above; assay type: cell-based, African green monkey
Procedure: as §1, §2
as §3, with “A 0.5 ml aliquot of RPMI-1640 medium or Eagle's NEM medium containing 10% bovine fetal calf serum was placed in a Lab Tech plastic chamber of 8-well type, (Falcon Inc.), and suspensions of various tumor cells, each containing about 1×10^4 cells in 0.5 ml, were added thereto and cultured in an incubator at 37° C. in 5% CO2 (95% being air). After” for “After”
(§4) (b) Numerals show reciprocal number of dilution for obtaining the
(§5) equivalent effect after 24hour treatment on the basis of the effect of th […]

[18] = test system: C6; experiment: as above; assay type: cell-based, rat
Procedure: as §1, §2, §3

[19] = test system: WISH; experiment: as above; assay type: cell-based, human
Procedure: as §1, §2, §3

[20] = test system: HeP2; experiment: as above; assay type: cell-based, human
Procedure: as §1, §2, §3

[21] = test system: HSG; experiment: as above; assay type: cell-based, human
Procedure: as §1, §2, §3

[22] = test system: tumor cell; experiment: Effect of serum on tumor cell toxicity with time; assay type: cell-based; conditions: presence of serum; 24-hour vs one-hour treatment
Procedure: as §1, §2, §3

[23] = test system: HeLa; experiment: Cytotoxicity induced by protease activity in the presence of serum; assay type: cell-based
Procedure: as §1, §2, §3

[24] = test system: HEL; experiment: as above; assay type: cell-based, human
Procedure: as §1, §2
as §3, with “A 0.5 ml aliquot of RPMI-1640 medium or Eagle's NEM medium containing 10% bovine fetal calf serum was placed in a Lab Tech plastic chamber of 8-well type, (Falcon Inc.), and suspensions of various tumor cells, each containing about 1×10^4 cells in 0.5 ml, were added thereto and cultured in an incubator at 37° C. in 5% CO2 (95% being air). After” for “After”
as §4, §5

In the case of pepsin, the “inhibition of activity by protease-inhibiting substances in vivo” value (from here on “inhibition of activity”) [1] is reported as “completely inhibited”, the “anti-tumor action / effect on propagation of tumors” value (“anti-tumor action / effect” below) [2] is reported as “no anti-tumor action” and the “action against tumor propagation (Meth A solid tumor)” value (from here on “action against tumor propagation”) [3] is reported as “no substantial action against the tumor propagation”.

Trypsin showed a Minimum effective concentration [4] of 1.56 µg/mL, a Minimum effective concentration [5] of 0.39 µg/mL and a Minimum effective concentration [6] of 1.56 µg/mL. It also gave a Minimum effective concentration [7] of 0.78 µg/mL, a Minimum effective concentration [8] of 0.05 µg/mL and a Minimum effective concentration [9] of 0.78 µg/mL. The Minimum effective concentration [10] was 1.56 µg/mL, the Minimum effective concentration [11] was 0.39 µg/mL and the Minimum effective concentration [12] was over 5.0 µg/mL. For the same molecule, the Minimum effective concentration [13] was 0.20 µg/mL, the Minimum effective concentration [14] was 0.39 µg/mL and the Minimum effective concentration [15] was 1.56 µg/mL. For the same molecule, the “Cytotoxicity in the presence of serum with time (reciprocal number of dilution for equivalent effect after 24-hour vs one-hour treatment)” value [16] was 2-4, the “Cytotoxicity in the presence of serum with time (reciprocal number of dilution for equivalent effect after 24-hour vs one-hour treatment)” value [17] was 2 and the “inhibition of activity” value [1] was “completely inhibited”. The “Cytotoxicity in the presence of serum with time (reciprocal number of dilution for equivalent effect after 24-hour vs one-hour treatment)” value [18] was 2, the “anti-tumor action / effect” value [2] was “no anti-tumor action” and the “Cytotoxicity in the presence of serum with time (reciprocal number of dilution for equivalent effect after 24-hour vs one-hour treatment)” value [19] was 4. For the same molecule, the “Cytotoxicity in the presence of serum with time (reciprocal number of dilution for equivalent effect after 24-hour vs one-hour treatment)” value [20] was 0-4, the “Cytotoxicity in the presence of serum with time (reciprocal number of dilution for equivalent effect after 24-hour vs one-hour treatment)” value [21] was 2-4 and the “cytotoxic effects in 24-hour treatment than one-hour treatment” value [22] was “no substantial enhancement”. For the same molecule, the “Cytotoxicity in the presence of serum with time (reciprocal number of dilution for equivalent effect after 24-hour vs one-hour treatment)” value [23] was 2-4, the “Cytotoxicity in the presence of serum with time (reciprocal number of dilution for equivalent effect after 24-hour vs one-hour treatment)” value [24] was 2 and the “action against tumor propagation” value [3] was “no substantial action against the tumor propagation”.

chymotrypsin was tested, and the “inhibition of activity” value [1] was “completely inhibited” and the “anti-tumor action / effect” value [2] was “no anti-tumor action”.

B1: Papain: protease of plant origin (protein, UniProt P00784 134-345, looked up)
Papain: IPEYVDWRQKGAVTPVKNQGSCGSCWAFSAVVTIEGIIKIRTGNLNEYSEQELLDCDRRSYGCNGGYPWSALQLVAQYGIHYRNTYPYEGVQRYCRSREKGPYAAKTDGVRQVQPYNEGALLYSIANQPVSVVLEAAGKDFQLYRGGIFVGPCGNKVDHAVAAVGYGPNYILIKNSWGTGWGENGYIRIKRGTGNSYGVCGLYTSSFYPVKN
B1 was tested, and the Minimum effective concentration [4] was 1.60 µg/mL, the Minimum effective concentration [5] was 0.38 µg/mL and the Minimum effective concentration [6] was 1.60 µg/mL. For the same molecule, the Minimum effective concentration [7] was 0.84 µg/mL, the Minimum effective concentration [8] was 0.06 µg/mL and the Minimum effective concentration [9] was 0.82 µg/mL. For the same molecule, the Minimum effective concentration [10] was 1.58 µg/mL, the Minimum effective concentration [11] was 0.37 µg/mL and the Minimum effective concentration [12] was over 5.0 µg/mL. For the same molecule, the Minimum effective concentration [13] was 0.20 µg/mL, the Minimum effective concentration [14] was 0.38 µg/mL and the Minimum effective concentration [15] was 1.52 µg/mL. The “Cytotoxicity in the presence of serum with time (reciprocal number of dilution for equivalent effect after 24-hour vs one-hour treatment)” value [16] was 2-4, the “Cytotoxicity in the presence of serum with time (reciprocal number of dilution for equivalent effect after 24-hour vs one-hour treatment)” value [17] was 2 and the “inhibition of activity” value [1] was “completely inhibited”. The “Cytotoxicity in the presence of serum with time (reciprocal number of dilution for equivalent effect after 24-hour vs one-hour treatment)” value [18] was 2, the “anti-tumor action / effect” value [2] was “no anti-tumor action” and the “Cytotoxicity in the presence of serum with time (reciprocal number of dilution for equivalent effect after 24-hour vs one-hour treatment)” value [19] was 2. For the same molecule, the “Cytotoxicity in the presence of serum with time (reciprocal number of dilution for equivalent effect after 24-hour vs one-hour treatment)” value [20] was 0-4, the “Cytotoxicity in the presence of serum with time (reciprocal number of dilution for equivalent effect after 24-hour vs one-hour treatment)” value [21] was 2-4 and the “cytotoxic effects in 24-hour treatment than one-hour treatment” value [22] was “no substantial enhancement”. The “Cytotoxicity in the presence of serum with time (reciprocal number of dilution for equivalent effect after 24-hour vs one-hour treatment)” value [23] was 2-4, the “Cytotoxicity in the presence of serum with time (reciprocal number of dilution for equivalent effect after 24-hour vs one-hour treatment)” value [24] was 2 and the “action against tumor propagation” value [3] was “no substantial action against the tumor propagation”.
